Patent US8324254B2, “Oxadiazole substituted indazole derivatives for use as sphingosine 1-phosphate (S1P) agonists” (Glaxo Group Limited, priority 2007, dated 2012)

Target: T1, S1P1 receptor (Homo sapiens, UniProt P21453)
T1 construct: expressed in transfected cells; membranes
Assay: S1P1 GTPγS binding assay
Assay type: biochemical
Settings: membranes of Rat Basophilic Leukaemia cells (RBL) stably expressing S1P1 receptor, 35S-GTPγS
Protocol: Rat Basophilic Leukaemia cells (RBL) stably expressing S1P1 receptor were grown to 80% confluency before being harvested into 10 ml Phospho-Buffered Saline (PBS) and centrifuged at 1200 rpm for 5 minutes. After removal of the supernatant, the pellet was re-suspended and homogenised in 20 volumes assay buffer (20 mM HEPES pH 7.4, 100 mM NaCl, 10 mM MgCl2.6H2O, 10 μM GDP Saponin 10 μg/ml). The membrane suspension was further centrifuged for 20 minutes at 20,000 rpm re-homogenised and spun again. Following the second centrifugation the pellet was resuspended in an appropriate volume (1 ml for each flask of cells) and assayed for protein concentration.
Concentrated stock of S1P was sonicated before serial dilutions were prepared from a starting concentration of 10^−5 M. Diluted membranes (10 μg/well) were incubated with various concentrations of S1P and 0.3 nM ^35S-GTPγS (NEN; specific activity 1250 Ci/mmol) in 96 deep well plates. Binding was performed at 30° C. for 45 minutes and terminated by harvesting the membranes onto GF/B filter plates using a Packard Universal Harvester. After drying the plates for 45 minutes, 50 μl of Microscint 0 was added to each well and binding measured on a Topcount NXT (Perkin Elmer). Data was analysed using Graphpad Prism 4 and expressed as percentage stimulation above basal. […]

T1 sequence (P21453 whole entry): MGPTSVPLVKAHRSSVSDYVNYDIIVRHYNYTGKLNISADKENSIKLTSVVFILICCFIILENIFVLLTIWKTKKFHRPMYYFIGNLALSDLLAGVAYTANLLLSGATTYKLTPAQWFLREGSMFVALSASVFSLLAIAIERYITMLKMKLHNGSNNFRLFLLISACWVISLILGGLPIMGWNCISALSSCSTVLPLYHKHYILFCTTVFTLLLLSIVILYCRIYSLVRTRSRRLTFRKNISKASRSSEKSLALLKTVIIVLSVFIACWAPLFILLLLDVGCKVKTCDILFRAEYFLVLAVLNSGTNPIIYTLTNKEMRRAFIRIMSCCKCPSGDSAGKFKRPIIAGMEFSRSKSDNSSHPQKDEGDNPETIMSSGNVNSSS

EC50: < 1000 nM
Compound: CC(C)Oc1ccc(-c2nc(-c3ccc4c(cnn4CCC(=O)O)c3)no2)cc1Cl [Example 1, 3-[5-(5-{3-Chloro-4-[(1-methylethyl)oxy]phenyl}-1,2,4-oxadiazol-3-yl)-1H-indazol-1-yl]propanoic acid]
